Like-named read-outs stand apart in the source and are kept apart here. Marks after values point to notes of the source that are not given here.
Assays:
acetylcholine receptors = format: binding, mice; conditions: for number of receptors (B max): mice treated 30 mg/kg 2 hours prior to sacrifice
NGF = test: Summary of effects on growth factor mRNA and protein (Table R): NGF; parameters: key: ± = mRNA; + = protein; nt = not tested; conditions: Aged Brain
From the text: (§1) The constellation of effects of AIT-082 on production of mRNA encoding growth factors and on production of growth factor proteins is shown in Table R. The results summarized in […] show both transcriptional and translational effects on growth factors that are in the categories of neurotrophins, pleiotrophins, members of the S100 family of EF hand calcium binding proteins, and members of the TGFβ superfamily. As indicated, effects have been shown at both the mRNA (transcriptional) and protein (translational) levels.

mice = test: Home cage locomotor activity; format: in vivo
Protocol: To measure home cage locomotor activity, the home cage was placed on a platform of an activity monitor (Stoelting Instruments). Home cage locomotor activity movements were recorded at one minute intervals for 15 minutes. Subjects received saline or AIT-082 and were returned to their home cages. Ten minutes after injection, the home cage was replaced on the platform of the activity monitor. Home cage locomotor activity movements were recorded at one minute intervals for 30 minutes. During the first five minutes, grooming activity was also monitored and recorded.

Swiss Webster mice = test: Win-shift T-maze memory test, Swiss Webster mice; format: in vivo; conditions: for Win-shift Memory Test, Correct responses: 90-second inter-trial interval
Protocol: Male Swiss Webster mice six months (young adult) and eleven months (old) of age, obtained from the National Institute on Aging, were maintained in individual cages, on a […] light/dark cycle with continuous access to water. Food was limited so that the mice stabilized at 80% of free feeding weight. Mice were weighed and handled daily for one week. The win-shift model was run as described in the literature and consists of a T-maze in which the correct response alternates after each correct trial. The interval between trials is varied and allows for the determination of the longest period between trials that a subject can remember the correct response on the previous trial. This allows the measure of the duration of the memory trace. […] The reward goal box is alternated after each correct trial. Ten trials per mouse are run each day. […] The latency time to leave the start box is recorded as a measure of motivation, the running time (the time from leaving the start box to reaching the goal box) is recorded as a measure of performance, and the number of correct responses as a measure of memory.
The drugs used in this example are 4-((3-(1,6-dihydro-6-oxo-9-purin-9-yl)-1-oxopropyl)amino) benzoic acid (AIT-082), as an exemplary potassium salt, tacrine hydrochloride (tetrahydroaminoacridine, THA, Sigma Chemical Co., St. Louis, Mo.), and physostigmine, hemisulfate salt (PHY, Sigma Chemical Co., St. Louis, Mo.). The drugs were dissolved in saline and prepared fresh daily. All injections were made at a volume of 0.1 ml/10 grams body weight. When testing drug effects, intraperitoneal (i.p.) injections of AIT-082 or THA were made one hour prior to the start of testing. Due to its shorter duration of action, PHY was injected 30 minutes prior to testing. Control subjects receive a similar injection of saline (vehicle).
To determine the duration of the memory trace, subjects were administered drug or saline and 30 minutes (PHY) or 1 hour (AIT-082 or THA) later they were given a single reference run with the milk reward in both goal boxes. After the indicated inter-trial delay, subjects were returned to the start box and given the first test trial with the milk reward only in the goal box opposite to the one entered on the previous correct trial. The subjects were given 10 trials with the reward alternating only after correct responses.
To determine if tolerance to the biological effects of AIT-082 developed, drug or saline was administered daily for 18 days prior to the testing in the standard win-shift paradigm.

rats = conditions: oral or intraperitoneal route, preliminary
CNTF mRNA = test: RT-PCR of growth factor mRNA after T8 spinal cord hemisection: CNTF; format: in vivo, Wistar rats
GDNF = test: Summary of effects on growth factor mRNA and protein (Table R): GDNF; parameters: key: ± = mRNA; + = protein; nt = not tested
From the text: as §1

O=C(CCn1cnc2c(=O)[nH]cnc21)Nc1ccc(C(=O)O)cc1 [AIT-082, N-4-carboxyphenyl-3-(6-oxohydropurin-9-yl)propanamide]
affinity (Kd) for QNB (acetylcholine receptors): no effect | number of receptors (B max) (acetylcholine receptors; cortex): decrease | number of receptors (B max) (acetylcholine receptors; striatum): increase | NGF, effect on mRNA/protein production (NGF): ± | Locomotor activity, Movements (mean ± S.D.) Post-drug (mice; AIT dose 0.005 mg/kg): 1375 ± 563 | Locomotor activity, Movements (mean ± S.D.) Difference (mice; AIT dose 0.005 mg/kg, pre-drug minus post-drug): 509 ± 429 | Locomotor activity, Movements (mean ± S.D.) Difference (mice; AIT dose 0.05 mg/kg): 209 ± 340 | Locomotor activity, Movements (mean ± S.D.) Post-drug (mice; AIT dose 0.05 mg/kg): 1508 ± 456 | Locomotor activity, Movements (mean ± S.D.) Difference (mice; AIT dose 0.5 mg/kg): 290 ± 435 | Locomotor activity, Movements (mean ± S.D.) Post-drug (mice; AIT dose 0.5 mg/kg): 1320 ± 689 | Locomotor activity, Movements (mean ± S.D.) Difference (mice; AIT dose 30.0 mg/kg): 342 ± 267 | Locomotor activity, Movements (mean ± S.D.) Post-drug (mice; AIT dose 30.0 mg/kg): 1098 ± 189 | Win-shift Memory Test, Correct responses (Swiss Webster mice; AIT-082 0.5 mg/kg i.p.): 6.5* Correct responses/10 trials | Win-shift Memory Test, Correct responses (Swiss Webster mice; AIT-082 30.0 mg/kg i.p.): 8.2* Correct responses/10 trials | Tolerance (Swiss Webster mice; AIT-082 30.0 mg/kg daily for 18 days prior to win-shift testing): 7.6* Correct responses/10 trials | onset of action (Swiss Webster mice; data not shown): 1 h | duration of action (Swiss Webster mice; single dose of 60 mg/kg): more than seven days | LD50 (rats): > 3000 mg/kg | CNTF mRNA level (CNTF mRNA; at the level of the lesion): increased mean CNTF mRNA levels over control animals, although not statistically so | CNTF mRNA level (CNTF mRNA; caudal to lesion, 7 days): no significant effects | CNTF mRNA level (CNTF mRNA; rostral to lesion, 3 days, sham-operated over lesion animals): significantly increased | CNTF mRNA level (CNTF mRNA; rostral to lesion, 7 days, control animals, over water alone (p=0.017)): robust increase | CNTF mRNA level (CNTF mRNA; rostral to lesion, 7 days, relative to lesion alone (p=0.056)): increased CNTF mRNA levels | GDNF, effect on mRNA/protein production (GDNF; Aged Brain): + | GDNF, effect on mRNA/protein production (GDNF; Lesioned Brain): + | GDNF, effect on mRNA/protein production (GDNF; Normal Brain): + | GDNF, effect on mRNA/protein production (GDNF; Normal Spinal Cord): +
